Reference: patent US20070160684A1, “Methods for increasing cancer cell chemosensitivity” (priority 2005, published 2007)
One block for each molecule: values may come before it.

What was measured:
H2AX phosphorylation = test: Western analysis of H2AX phosphorylation in HS578T and HCC1419 cells; format: cell-based
Method: (§1) NU7026 (Calbiochem, San Diego, Calif.) was dissolved in DMSO at 5 mM and stored at −20° C. […] Cell lysates were removed and subjected to Western analyses using monoclonal anti-phospho-H2AX (Ser 139) antibodies. Control Western analyses were performed using monoclonal anti-actin antibodies.
Experiments were repeated using HS578T and HCC1419 cells treated with 2 μM rather than 1 μM Dox.

DNA-PK = DNA-PK (Homo sapiens, UniProt P78527); conditions: reported (Veuger 2003; Willmore 2004); cited from earlier work
ATM = ATM (Homo sapiens, UniProt Q13315); conditions: reported (Veuger 2003; Willmore 2004); cited from earlier work
[1] = system: H2AX Ser139 phosphorylation; test: Western analysis of H2AX phosphorylation in Pa-4 and Pa-4/HMGA2 cells; format: cell-based; conditions: 4 mM caffeine or 10 μM NU7026 1 hour, then with 1 μM Dox 2 hours
Method: To ascertain whether HMGA2 effects Dox-induced ATM signaling activation, phosphorylation of ATM Ser1981 and H2AX Ser139 was assayed in the presence and absence of Dox (2 μM in ATM assays, 1 μM in H2AX assays). At various timepoints after Dox treatment, cell lysates were removed and subjected to Western analyses using monoclonal anti-phospho-ATM antibodies (Ser1981), polyclonal anti-ATM antibodies (Santa Cruz Biotechnology, Santa Cruz, Calif.), monoclonal anti-phospho-H2AX antibodies ([…]) (Upstate Cell Signaling), or anti-H2AX antibodies. Control Western analyses were performed using monoclonal anti-actin antibodies. […] HeLa and HeLa/HMGA2 cells
as §1

ATR = ATR (Homo sapiens, UniProt Q13535); conditions: reported (Veuger 2003; Willmore 2004); cited from earlier work
[2] = system: HeLa and HeLa/HMGA2 cells; test: MTT cell viability assay; format: cell-based; conditions: increasing concentrations, 72 hours
Source text: HS578T, HCC1419, and CHO cells

Pa-4/HMGA2 cells = test: FACS analysis after caffeine and Dox (G2/M, sub-G1); format: cell-based
Method: Pa-4 and Pa-4/HMGA2 cells were seeded at 50-80% confluency in 35 mm dishes and serum starved overnight to synchronize cell cycle. […] Following treatment, cells were fixed in 70% ethanol overnight, stained with 20 μg/ml propidium iodide, and subjected to FACS analysis.
Apoptosis was quantified by assessing sub-G1 cell populations.

Pa-4 cells = conditions: 4 mM caffeine 1 hour, then 1 μM Dox and 4 mM caffeine 48 hours
[3] = system: Pa-4 and Pa-4/HMGA2 cells; test: MTT cell viability assay; format: cell-based; conditions: Dox 0-7 μM or irinotecan 0-50 μM
[4] = biological target: Ku80 (80-kDa subunit of the DNA-PK holoenzyme), endogenous in HeLa and HeLa/HMGA2 cells (UniProt P13010); test: co-immunoprecipitation with anti-HA antibody from transiently transfected HeLa cells; reference set to 100%
[5] = biological target: Ku80 (80-kDa subunit of the DNA-PK holoenzyme), endogenous in HeLa and HeLa/HMGA2 cells (UniProt P13010); test: co-immunoprecipitation with anti-HA antibody from transiently transfected HeLa cells, Western for Ku80, quantitated and normalized
HeLa cells = test: MTT viability of Dox-treated HeLa cells transfected with HMGA2 constructs; format: cell-based; conditions: transient transfection, Dox for 72 hours
Method: FIG. 19: Correlation between HMGA2 binding of Ku80 and chemosensitization towards Dox. HeLa cells were transfected with individual HMGA2 wild type and engineered constructs and allowed to recover overnight prior to reseeding for cell viability assay. Cells were treated with Dox for 72 hours and followed by MTT assays. ** denotes p<0.01.
To elucidate the relevance of HMGA2 complex formation with Ku80/Ku70, the viability of Dox-treated HeLa cells transfected with HMGA2 or its engineered mutants was examined. […] The augmented resistance to Dox, relative to that of vector-transfected HeLa cells, by HMGA2(Δ83-109) and HMGA2(4P/A) mutants may be due to protein-protein interactions arising from the remaining portion of HMGA2.

Ku80 = biological target: T1, Ku80 (Homo sapiens, UniProt P13010); test: Co-immunoprecipitation of HMGA2 constructs with Ku80 in transfected HeLa cells; format: cell-based; conditions: transient transfection of HeLa cells
T1 construct: Co-immunoprecipitation assays were performed following transient transfection of HeLa cells with these constructs; endogenous in cells; host or cells: HeLa, transiently transfected with HA-HMGA2 constructs
Source text: FIG. 18: Role of protein-protein and protein-DNA interactions in the HMGA/Ku80/Ku70 interaction. Individual wild type and engineered HMGA2 expression constructs was transfected into HeLa cells. The transfected cells were allowed to recover overnight in fresh medium prior to immunoprecipitation with an anti-HA antibody. Quantitation was done with BioRad Quantity One volume report program. After normalization with transfection efficiency and the expression level of HMGA2 and its mutant, percentage of Ku80/HMGA2 interaction is calculated by designating immunoprecipitated Ku80 with wild type HMGA2 as 100%.
To determine whether HMGA2 directly interacts with either subunit of the DNA-PK complex to dysregulate DNA-PK activation, co-immunoprecipitation assays were conducted using an anti-Ku70 antibody in HeLa and HeLa/HMGA2 cells. Cells were lysed for one hour in RIPA buffer (PBS, 1% NP40, 0.5% sodium deoxycholate, 0.1% SDS) supplemented with PMSF, aprotinin, and sodium orthovanadate immediately before use. The cell lysates were centrifuged at 10,000 rpm for 10 minutes and supernatants were collected. Protein concentrations were determined using Bradford protein assay. […] Samples were then analyzed by Western analyses. […]

[6] = system: HeLa, HeLa/HMGA2, HeLa/HMGA2(2K/R) cells; test: MTT cell viability assay; format: cell-based; conditions: stable expression in HeLa cells, 72 hours
Method: FIG. 14: Association of HMGA2-dependent chemosensitization with HMGA2 SUMOylation. HeLa, HeLa/HMGA2, HeLa/HMGA2(2K/R) cells were subjected to treatment with increasing concentrations of Dox (upper panel) or cisplatin (lower panel) for 72 hours, as indicated. Cell viabilities were assessed using MTT assays. * denotes p<0.05; ** denotes p<0.01.
HMGA2 is a SUMOylation target (Cao, X. and Ann, D. K., unpublished observation). To investigate whether SUMOylation is involved in HMGA2-mediated chemosensitization, an HMGA2 mutant was constructed that carried Lysine to Arginine (Lys→Arg) point mutations at residues 66 and 67. These residues correspond to the SUMOyalation site (FIG. 13). The construct (HMGA2(2K/R)) was generated using previously described HA-HMGA2/pcDNA3.1 (Zentner 2001) as a template in conjunction with GeneEditor™ in vitro Site-Directed Mutagenesis System (Promega) and the mutagenesis primer set forth in SEQ ID NO:14. Desired mutations were confirmed by DNA sequencing analyses.

Ku80 (80-kDa subunit of the DNA-PK holoenzyme), endogenous in HeLa and HeLa/HMGA2 cells, sequence (P13010 2-732 limits assumed): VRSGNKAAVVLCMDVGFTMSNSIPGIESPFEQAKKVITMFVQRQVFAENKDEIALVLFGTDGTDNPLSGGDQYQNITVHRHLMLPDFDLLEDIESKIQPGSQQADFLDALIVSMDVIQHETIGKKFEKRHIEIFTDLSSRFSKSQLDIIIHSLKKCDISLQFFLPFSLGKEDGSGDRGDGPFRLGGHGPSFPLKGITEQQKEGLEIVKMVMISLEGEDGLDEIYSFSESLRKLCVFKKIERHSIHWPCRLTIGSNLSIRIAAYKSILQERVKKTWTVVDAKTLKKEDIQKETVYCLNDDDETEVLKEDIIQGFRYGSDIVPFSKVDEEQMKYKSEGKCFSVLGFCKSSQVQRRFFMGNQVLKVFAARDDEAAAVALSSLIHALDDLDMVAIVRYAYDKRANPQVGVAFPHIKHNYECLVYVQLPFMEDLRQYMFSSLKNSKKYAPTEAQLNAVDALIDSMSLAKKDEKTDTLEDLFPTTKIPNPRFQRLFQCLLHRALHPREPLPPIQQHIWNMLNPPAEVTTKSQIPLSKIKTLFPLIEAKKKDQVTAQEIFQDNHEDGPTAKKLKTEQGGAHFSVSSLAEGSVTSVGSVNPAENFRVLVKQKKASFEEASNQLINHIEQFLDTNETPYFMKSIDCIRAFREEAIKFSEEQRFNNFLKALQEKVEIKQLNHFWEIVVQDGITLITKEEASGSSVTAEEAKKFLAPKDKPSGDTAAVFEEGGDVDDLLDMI
T1 sequence (P13010 2-732 limits assumed): as above
T1 sequence (P12956 2-609 partner limits assumed): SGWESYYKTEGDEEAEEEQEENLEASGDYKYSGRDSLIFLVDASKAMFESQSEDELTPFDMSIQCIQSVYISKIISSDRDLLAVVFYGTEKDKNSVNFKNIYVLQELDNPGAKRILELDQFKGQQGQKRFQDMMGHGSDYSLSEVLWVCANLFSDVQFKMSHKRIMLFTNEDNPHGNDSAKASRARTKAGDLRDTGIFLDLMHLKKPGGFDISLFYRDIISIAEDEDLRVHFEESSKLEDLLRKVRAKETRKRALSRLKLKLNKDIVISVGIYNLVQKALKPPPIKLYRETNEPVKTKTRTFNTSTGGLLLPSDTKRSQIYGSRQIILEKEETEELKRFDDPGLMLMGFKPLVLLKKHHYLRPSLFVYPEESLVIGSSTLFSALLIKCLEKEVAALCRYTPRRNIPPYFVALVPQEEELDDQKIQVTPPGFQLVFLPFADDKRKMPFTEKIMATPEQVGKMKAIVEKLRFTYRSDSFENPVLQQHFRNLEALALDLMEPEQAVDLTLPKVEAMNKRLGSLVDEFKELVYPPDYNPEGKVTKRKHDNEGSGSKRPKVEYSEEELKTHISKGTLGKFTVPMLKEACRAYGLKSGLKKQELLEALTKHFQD
ATM, sequence (Q13315 whole entry, species assumed): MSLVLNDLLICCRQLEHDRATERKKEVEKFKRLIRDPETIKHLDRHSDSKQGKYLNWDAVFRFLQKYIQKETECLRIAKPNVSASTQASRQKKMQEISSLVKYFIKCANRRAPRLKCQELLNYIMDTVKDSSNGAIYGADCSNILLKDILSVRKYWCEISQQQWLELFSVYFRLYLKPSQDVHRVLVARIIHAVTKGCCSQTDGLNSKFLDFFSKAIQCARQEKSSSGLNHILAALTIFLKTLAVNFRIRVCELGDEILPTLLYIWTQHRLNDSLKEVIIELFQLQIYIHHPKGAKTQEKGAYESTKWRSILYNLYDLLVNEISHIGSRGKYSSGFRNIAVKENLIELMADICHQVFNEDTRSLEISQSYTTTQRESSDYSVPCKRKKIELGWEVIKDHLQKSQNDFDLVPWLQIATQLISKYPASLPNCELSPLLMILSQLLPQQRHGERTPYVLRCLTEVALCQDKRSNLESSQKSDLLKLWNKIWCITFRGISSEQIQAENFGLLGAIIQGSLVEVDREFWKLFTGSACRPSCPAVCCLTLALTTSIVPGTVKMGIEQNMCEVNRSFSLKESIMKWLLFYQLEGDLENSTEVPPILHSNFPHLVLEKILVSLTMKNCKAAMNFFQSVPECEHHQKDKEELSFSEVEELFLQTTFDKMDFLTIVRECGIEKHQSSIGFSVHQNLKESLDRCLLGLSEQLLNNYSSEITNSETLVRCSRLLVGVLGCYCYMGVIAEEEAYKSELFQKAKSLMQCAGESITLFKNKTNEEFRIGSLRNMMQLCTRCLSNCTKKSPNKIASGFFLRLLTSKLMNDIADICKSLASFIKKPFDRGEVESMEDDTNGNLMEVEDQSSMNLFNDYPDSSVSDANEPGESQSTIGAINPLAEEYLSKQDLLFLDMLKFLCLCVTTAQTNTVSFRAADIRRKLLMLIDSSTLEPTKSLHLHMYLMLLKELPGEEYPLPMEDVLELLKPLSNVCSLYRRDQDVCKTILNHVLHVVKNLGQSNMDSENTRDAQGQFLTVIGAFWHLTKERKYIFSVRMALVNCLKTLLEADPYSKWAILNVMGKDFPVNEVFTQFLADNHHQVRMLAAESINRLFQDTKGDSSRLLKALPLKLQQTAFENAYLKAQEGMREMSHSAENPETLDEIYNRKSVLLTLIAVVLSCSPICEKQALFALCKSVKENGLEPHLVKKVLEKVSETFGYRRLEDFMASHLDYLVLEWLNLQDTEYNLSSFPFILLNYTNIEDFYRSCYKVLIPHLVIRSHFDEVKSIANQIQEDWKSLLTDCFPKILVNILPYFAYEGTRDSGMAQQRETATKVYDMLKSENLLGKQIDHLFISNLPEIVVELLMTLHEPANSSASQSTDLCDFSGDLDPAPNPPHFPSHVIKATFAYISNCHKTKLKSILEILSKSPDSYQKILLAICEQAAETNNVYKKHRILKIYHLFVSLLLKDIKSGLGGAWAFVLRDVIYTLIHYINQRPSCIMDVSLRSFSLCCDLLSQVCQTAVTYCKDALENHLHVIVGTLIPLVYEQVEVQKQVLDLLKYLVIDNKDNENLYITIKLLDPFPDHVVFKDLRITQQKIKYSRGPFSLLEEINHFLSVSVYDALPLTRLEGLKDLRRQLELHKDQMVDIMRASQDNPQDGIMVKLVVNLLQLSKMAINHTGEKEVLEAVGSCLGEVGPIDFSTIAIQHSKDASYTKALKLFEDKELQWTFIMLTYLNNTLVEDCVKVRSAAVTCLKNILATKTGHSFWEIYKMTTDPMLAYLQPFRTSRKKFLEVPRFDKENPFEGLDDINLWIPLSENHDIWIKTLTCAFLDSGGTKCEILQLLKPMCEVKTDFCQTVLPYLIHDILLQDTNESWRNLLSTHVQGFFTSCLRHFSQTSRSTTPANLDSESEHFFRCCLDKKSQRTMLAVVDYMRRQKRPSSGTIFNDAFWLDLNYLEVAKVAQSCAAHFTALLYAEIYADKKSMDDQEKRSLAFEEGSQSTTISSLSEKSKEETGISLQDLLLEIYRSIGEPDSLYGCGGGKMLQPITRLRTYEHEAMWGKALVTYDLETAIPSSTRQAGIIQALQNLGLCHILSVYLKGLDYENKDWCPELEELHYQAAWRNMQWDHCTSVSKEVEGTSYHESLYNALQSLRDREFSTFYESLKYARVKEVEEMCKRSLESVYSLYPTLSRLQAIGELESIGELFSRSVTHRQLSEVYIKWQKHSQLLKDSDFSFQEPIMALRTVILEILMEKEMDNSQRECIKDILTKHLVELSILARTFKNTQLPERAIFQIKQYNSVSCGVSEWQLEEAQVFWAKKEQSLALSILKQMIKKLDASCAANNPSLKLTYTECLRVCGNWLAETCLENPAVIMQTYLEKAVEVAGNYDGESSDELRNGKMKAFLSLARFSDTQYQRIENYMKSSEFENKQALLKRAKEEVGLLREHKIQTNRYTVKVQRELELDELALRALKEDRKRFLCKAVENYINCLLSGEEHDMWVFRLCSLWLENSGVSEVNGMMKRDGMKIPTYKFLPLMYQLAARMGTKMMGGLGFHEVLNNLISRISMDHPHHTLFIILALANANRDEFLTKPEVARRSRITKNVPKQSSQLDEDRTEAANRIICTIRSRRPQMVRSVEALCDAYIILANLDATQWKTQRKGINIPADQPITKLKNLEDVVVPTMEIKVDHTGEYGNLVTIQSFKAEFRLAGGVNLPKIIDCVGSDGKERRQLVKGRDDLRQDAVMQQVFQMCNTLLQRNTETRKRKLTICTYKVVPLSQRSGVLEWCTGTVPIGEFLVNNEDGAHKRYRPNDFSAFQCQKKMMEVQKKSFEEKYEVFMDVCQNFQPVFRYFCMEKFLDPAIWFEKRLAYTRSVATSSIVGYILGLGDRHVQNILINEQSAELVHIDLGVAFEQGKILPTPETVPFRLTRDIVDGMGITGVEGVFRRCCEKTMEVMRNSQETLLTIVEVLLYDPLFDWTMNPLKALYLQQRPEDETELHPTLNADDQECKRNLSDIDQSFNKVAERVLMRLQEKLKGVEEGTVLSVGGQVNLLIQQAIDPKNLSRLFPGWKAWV

Molecule: O=c1cc(N2CCOCC2)oc2c1ccc1ccccc12 [NU7026]
effect of pre-treatment on Dox-induced H2AX phosphorylation (H2AX phosphorylation; HCC1419 cells, 2 μM Dox): downregulated
effect of pre-treatment on H2AX phosphorylation (H2AX phosphorylation; HS578T cells, with or without 2 μM Dox): did not decrease H2AX phosphorylation in either the presence or absence of Dox treatment
selectivity for DNA-PK (DNA-PK): highly selective for DNA-PK
activity against ATM (ATM): inactive
effect of pre-treatment on basal or Dox-induced H2AX phosphorylation ([1]; Pa-4/HMGA2 cells): little or no effect
effect of pre-treatment on Dox-induced H2AX phosphorylation ([1]; Pa-4 cells): attenuated
activity against ATR (ATR): inactive

Molecule: CC(=O)O[C@H]1C(=O)[C@@]2(C)[C@H]([C@H](OC(=O)c3ccccc3)[C@]3(O)C[C@H](OC(=O)[C@H](O)[C@@H](NC(=O)c4ccccc4)c4ccccc4)C(C)=C1C3(C)C)[C@]1(OC(C)=O)CO[C@@H]1C[C@@H]2O [Taxol]
Taxol-induced cell growth inhibition, HeLa versus HeLa/HMGA2 [2]: no substantial difference in the response to Taxol between HeLa and HeLa/HMGA2 cells

Molecule: Cn1c(=O)c2c(ncn2C)n(C)c1=O [caffeine]
cell cycle distribution / cells in G2/M, single agent (Pa-4/HMGA2 cells; 4 mM caffeine or 1 μM Dox, 48 hours): decreased the number of cells in G2/M
apoptosis with both caffeine and Dox (Pa-4/HMGA2 cells; caffeine with Dox): apoptosis levels greater than those observed after treatment with caffeine or Dox alone
effect on Dox-induced G2/M arrest (Pa-4 cells): greatly reduced Dox-induced G2/M arrest

Molecule: CCc1c2c(nc3ccc(OC(=O)N4CCC(N5CCCCC5)CC4)cc13)-c1cc3c(c(=O)n1C2)COC(=O)[C@]3(O)CC [irinotecan]
difference in decrease of viability between Pa-4/HMGA2 and Pa-4 cells ([3]; 72 hours): little difference observed between the two cell types
cell viability / growth inhibition ([3]; 72 hours after treatment): dose-dependent growth inhibition in both cell types

percentage of Ku80/HMGA2 interaction [4]: 100%
Molecule: HA-HMGA2 (HA-tagged wild-type high-mobility group A2 protein expressed from pcDNA3.1/HA-HMGA2 in HeLa cells) (from UniProt P52926 1-109)

decrease of the interaction with Ku80 against wild-type HMGA2 [5]: > 70%
Molecule: HA-HMGA2(Δ66-109) (from UniProt P52926 1-65)

decrease of the interaction with Ku80 against wild-type HMGA2 [5]: > 50%
Molecule: HA-HMGA2(Δ83-109) (from UniProt P52926 1-82)

B1: HMGA2(4P/A): HMGA2 mutant with four Pro→Ala mutations at amino acid positions 48, 52, 76, and 80 (protein)
chain: MSARGEGAGQPSTSAQGQPAAPAPQKRGRGRPRKQQQEPTGEPSPKRARGRAKGSKNKSPSKAAQKKAEATGEKRARGRARKWPQQVVQKKPAQEETEETSSQESAEED
modifications: left off: small tags and cut ends
sensitivity of transfected HeLa cells to Dox (HeLa cells): relatively greater resistance to Dox-treatment
ability to interact with Ku80 (Ku80): almost completely abrogated the binding of HMGA2 to Ku80

B2: HMGA2(Δ1-24): truncated HMGA2 carrying deletion of the N-terminus (protein, UniProt P52926 25-109, looked up, fragment)
chain: QKRGRGRPRKQQQEPTGEPSPKRPRGRPKGSKNKSPSKAAQKKAEATGEKRPRGRPRKWPQQVVQKKPAQEETEETSSQESAEED
modifications: HA tag
notes: truncated HMGA2 carrying deletion of the N-terminus
sensitivity of transfected HeLa cells to Dox (HeLa cells): enhanced the sensitivity of HeLa cells to Dox
ability to interact with Ku80 (Ku80): retained the full ability to interact with Ku80

B3: HMGA2(Δ83-109): truncated HMGA2 carrying deletion of the C-terminus (protein, UniProt P52926 1-82, looked up, fragment)
chain: MSARGEGAGQPSTSAQGQPAAPAPQKRGRGRPRKQQQEPTGEPSPKRPRGRPKGSKNKSPSKAAQKKAEATGEKRPRGRPRK
modifications: HA tag
notes: truncated HMGA2 carrying deletion of the C-terminus
sensitivity of transfected HeLa cells to Dox (HeLa cells): relatively greater resistance to Dox-treatment

B4: HMGA2(2K/R): SUMOylation-defective HMGA2 mutant with Lys→Arg point mutations at residues 66 and 67 (protein, UniProt P52926 2-109, looked up, variant K66R K67R)
High mobility group protein …: SARGEGAGQPSTSAQGQPAAPAPQKRGRGRPRKQQQEPTGEPSPKRPRGRPKGSKNKSPSKAAQRRAEATGEKRPRGRPRKWPQQVVQKKPAQEETEETSSQESAEED
effect on cytotoxicity elicited by Dox [6]: partially reversed the cytotoxicity
effect on cytotoxicity elicited by cisplatin [6]: partially reversed the cytotoxicity
